Assay [1] concerns the target IL-17A(FLAG-Tagged): IL-17RA(His-Tagged) (Homo sapiens, UniProt Q16552, K93Q). Briefly: IL-17A(FLAG-Tagged): IL-17RA(His-Tagged) Binding Disruption Eu-HTRF Assay. Conditions: IL-17A/IL-17RA binding disruption, simple average if tested more than once. The method in brief: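 IC50 comes from a one-site competition fit of the HTRF 665/620 nm ratio. Compound dilutions (2-fold, 22 points) were held 1 h rt with FLAG-tagged IL-17A dimer, then His-tagged IL-17RA plus Eu-cryptate anti-FLAG and D2 anti-His antibodies were added for 2 h rt.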
For orientation: Time-resolved FRET reads energy transfer from a long-lived donor to a nearby acceptor.

The test system of assay [2] is IL-17A-induced G-CSF production in human normal keratinocyte (NHK). Briefly: NHK Assay: IL-17A-induced G-CSF production in human normal keratinocytes. Type of assay: cell-based. Conditions: Homo sapiens, Keratinocyte, 24 h, adult normal human keratinocytes, IL-17A 5 ng/mL, simple average if tested more than once. The method in brief:
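G-CSF released by primary adult human keratinocytes after 24 h at 37° C was quantified by HTRF via standard curve to give IC50. Stimulus was 5 ng/mL IL-17A pre-mixed 1 h at rt with compound dilutions, in 5% FBS and 0.2% DMSO. Cell viability was assessed in parallel with CellTiter-Glo.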

SMILES strings stand for the structures.

Sequence of UniProt Q16552 (Q16552 with tags, fused parts or gaps K93Q): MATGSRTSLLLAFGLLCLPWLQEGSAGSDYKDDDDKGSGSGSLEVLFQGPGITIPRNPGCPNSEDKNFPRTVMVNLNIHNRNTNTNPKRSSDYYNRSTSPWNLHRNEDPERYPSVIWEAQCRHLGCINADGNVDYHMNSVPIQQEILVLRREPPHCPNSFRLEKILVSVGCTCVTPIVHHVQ

As a reminder, the IC50 is the concentration that gives 50% inhibition. `CCc1cccc(C(=O)N[C@H](c2cn3ncc([C@H](NC(=O)CCC(F)(F)F)C4CC4)cc3n2)C2CCC(F)(F)CC2)n1` [Example 228, N—((S)-(7-((R)-Cyclopropyl(4,4,4-trifluorobutanamido)methyl)imidazo[1,2-b]pyridazin-2-yl)(4,4-difluorocyclohexyl)methyl)-6-ethylpicolinamide]: the IC50 was 1000 nM in assay [1] and > 20000 nM in assay [2].
With `O=C(CCC(F)(F)F)N[C@@H](c1cnn2cc([C@@H](NC(=O)c3cccc(C(F)F)n3)C3CCC(F)(F)CC3)nc2c1)C1CC1` [Example 229, N—((S)-(7-((R)-Cyclopropyl(4,4,4-trifluorobutanamido)methyl)imidazo[1,2-b]pyridazin-2-yl)(4,4-difluorocyclohexyl)methyl)-6-(difluoromethyl)picolinamide], the IC50 in assay [1] is 1200 nM; in assay [2], > 20000 nM.
Taken in the same sequence, the figures for `CC(F)(F)c1cccc(C(=O)N[C@H](c2cn3ncc([C@H](NC(=O)CCC(F)(F)F)C4CC4)cc3n2)C2CCC(F)(F)CC2)n1` [Example 230, N—((S)-(7-((R)-Cyclopropyl(4,4,4-trifluorobutanamido)methyl)imidazo[1,2-b]pyridazin-2-yl)(4,4-difluorocyclohexyl)methyl)-6-(1,1-difluoroethyl)picolinamide] were 2000 nM and > 20000 nM.
For the compound `O=C(CCC(F)(F)F)N[C@@H](c1cnn2cc([C@@H](NC(=O)c3ccccc3CC(F)(F)F)C3CCC(F)(F)CC3)nc2c1)C1CC1` [Example 231, N—((S)-(7-((R)-Cyclopropyl(4,4,4-trifluorobutanamido)methyl)imidazo[1,2-b]pyridazin-2-yl)(4,4-difluorocyclohexyl)methyl)-2-(2,2,2-trifluoroethyl)benzamide], the IC50 in assay [1] is 320 nM; in assay [2] it was > 20000 nM.
Take `CC(C)c1oncc1C(=O)N[C@H](c1cn2ncc([C@H](NC(=O)CCC(F)(F)F)C3CC3)cc2n1)C1CCC(F)(F)CC1` [Example 232, N—((S)-(7-((R)-Cyclopropyl(4,4,4-trifluorobutanamido)methyl)imidazo[1,2-b]pyridazin-2-yl)(4,4-difluorocyclohexyl)methyl)-5-isopropylisoxazole-4-carboxamide]: the IC50 in assay [1] was 43 nM; in assay [2], 65 nM.
For `[2H]C([2H])([2H])C([2H])([2H])n1nccc1C(=O)N[C@H](c1cn2ncc([C@H](NC(=O)CCC(F)(F)F)C3CC3)cc2n1)C1CCC(F)(F)CC1` [Example 233, N—((S)-(7-((R)-Cyclopropyl(4,4,4-trifluorobutanamido)methyl)imidazo[1,2-b]pyridazin-2-yl)(4,4-difluorocyclohexyl)methyl)-1-(ethyl-d5)-1H-pyrazole-5-carboxamide], in that order: 47 nM and 51 nM.
As for `[2H]C([2H])([2H])C([2H])([2H])n1nccc1C(=O)N[C@H](c1cn2ncc([C@H](NC(=O)CC3CC(F)(F)C3)C3CC3)cc2n1)C1CCC(F)(F)CC1` [Example 234, N—((S)-(7-((R)-Cyclopropyl(2-(3,3-difluorocyclobutyl)acetamido)methyl)imidazo[1,2-b]pyridazin-2-yl)(4,4-difluorocyclohexyl)methyl)-1-(ethyl-d5)-1H-pyrazole-5-carboxamide], the values for the IC50 in assay [1] and in assay [2] were 85 nM and 52 nM, respectively.
On to `O=C(CCC(F)(F)F)N[C@@H](c1cnn2cc([C@@H](NC(=O)c3conc3C3COC3)C3CCC(F)(F)CC3)nc2c1)C1CC1` [Example 235, N—((S)-(7-((R)-Cyclopropyl(4,4,4-trifluorobutanamido)methyl)imidazo[1,2-b]pyridazin-2-yl)(4,4-difluorocyclohexyl)methyl)-3-(oxetan-3-yl)isoxazole-4-carboxamide], for which the figures for the IC50 in assay [1] and in assay [2] were 100 nM and 220 nM, respectively.
Consider `O=C(CCC(F)(F)F)N[C@@H](c1cnn2cc([C@@H](NC(=O)c3conc3CC3CC3)C3CCC(F)(F)CC3)nc2c1)C1CC1` [Example 236, N—((S)-(7-((R)-Cyclopropyl(4,4,4-trifluorobutanamido)methyl)imidazo[1,2-b]pyridazin-2-yl)(4,4-difluorocyclohexyl)methyl)-3-(cyclopropylmethyl)isoxazole-4-carboxamide], for which the figures for the concentration for half-maximal inhibition (IC50) in assay [1] and in assay [2] were 46 nM and 360 nM, respectively.
As to `O=C(CCC(F)(F)F)N[C@@H](c1cnn2cc([C@@H](NC(=O)c3conc3COC(F)F)C3CCC(F)(F)CC3)nc2c1)C1CC1` [Example 237, N—((S)-(7-((R)-Cyclopropyl(4,4,4-trifluorobutanamido)methyl)imidazo[1,2-b]pyridazin-2-yl)(4,4-difluorocyclohexyl)methyl)-3-((difluoromethoxy)methyl)isoxazole-4-carboxamide], the IC50 turned out to be 52 nM in assay [1] and 88 nM in assay [2].
Take `CCOc1nocc1C(=O)N[C@H](c1cn2ncc([C@H](NC(=O)CCC(F)(F)F)C3CC3)cc2n1)C1CCC(F)(F)CC1` [Example 238, N—((S)-(7-((R)-Cyclopropyl(4,4,4-trifluorobutanamido)methyl)imidazo[1,2-b]pyridazin-2-yl)(4,4-difluorocyclohexyl)methyl)-3-ethoxyisoxazole-4-carboxamide]: the results for the IC50 in assay [1] and in assay [2] were 190 nM and 830 nM, respectively.
For `COc1nocc1C(=O)N[C@H](c1cn2ncc([C@H](NC(=O)CCC(F)(F)F)C3CC3)cc2n1)C1CCC(F)(F)CC1` [Example 239, N—((S)-(7-((R)-Cyclopropyl(4,4,4-trifluorobutanamido)methyl)imidazo[1,2-b]pyridazin-2-yl)(4,4-difluorocyclohexyl)methyl)-3-methoxyisoxazole-4-carboxamide], the IC50 in assay [1] is 430 nM; in assay [2], 1300 nM.
Turning to `O=C(CCC(F)(F)F)N[C@@H](c1cnn2cc([C@@H](NC(=O)c3ccnn3C3CC3)C3CCC(F)(F)CC3)nc2c1)C1CC1` [Example 240, 1-Cyclopropyl-N—((S)-(7-((R)-cyclopropyl(4,4,4-trifluorobutanamido)methyl)imidazo[1,2-b]pyridazin-2-yl)(4,4-difluorocyclohexyl)methyl)-1H-pyrazole-5-carboxamide], the IC50 in assay [1] came to 130 nM; in assay [2], 210 nM.
Consider `CC(C)n1nccc1C(=O)N[C@H](c1cn2ncc([C@H](NC(=O)CC3(C(F)(F)F)CC3)C3CC3)cc2n1)C1CCC(F)(F)CC1` [Example 244, N—((S)-(7-((R)-Cyclopropyl(2-(1-(trifluoromethyl)cyclopropyl)acetamido)methyl)imidazo[1,2-b]pyridazin-2-yl)(4,4-difluorocyclohexyl)methyl)-1-isopropyl-1H-pyrazole-5-carboxamide], for which the IC50 was 140 nM in assay [1] and 120 nM in assay [2].
In the case of `Cc1nonc1C(=O)N[C@H](c1cn2ncc([C@H](NC(=O)CC3(C(F)(F)F)CC3)C3CC3)cc2n1)C1CCC(F)(F)CC1` [Example 245, N—((S)-(7-((R)-Cyclopropyl(2-(1-(trifluoromethyl)cyclopropyl)acetamido)methyl)imidazo[1,2-b]pyridazin-2-yl)(4,4-difluorocyclohexyl)methyl)-4-methyl-1,2,5-oxadiazole-3-carboxamide], the IC50 in assay [1] was determined as 140 nM; in assay [2], 290 nM.
With `CC(C)n1nccc1C(=O)N[C@H](c1cn2ncc([C@H](NC(=O)CC3CCC3)C3CC3)cc2n1)C1CCC(F)(F)CC1` [Example 246, N—((S)-(7-((R)-(2-Cyclobutylacetamido)(cyclopropyl)methyl)imidazo[1,2-b]pyridazin-2-yl)(4,4-difluorocyclohexyl)methyl)-1-isopropyl-1H-pyrazole-5-carboxamide], the IC50 in assay [1] is 90 nM; in assay [2], 41 nM.
As for `Cc1nonc1C(=O)N[C@H](c1cn2ncc([C@H](NC(=O)CC3CCC3)C3CC3)cc2n1)C1CCC(F)(F)CC1` [Example 247, N—((S)-(7-((R)-(2-Cyclobutylacetamido)(cyclopropyl)methyl)imidazo[1,2-b]pyridazin-2-yl)(4,4-difluorocyclohexyl)methyl)-4-methyl-1,2,5-oxadiazole-3-carboxamide], the IC50 is 62 nM in assay [1] and 190 nM in assay [2].
Taken in the same sequence, the figures for `CC(C)n1nccc1C(=O)N[C@H](c1cn2ncc([C@H](NC(=O)CC34CC(C3)C4)C3CC3)cc2n1)C1CCC(F)(F)CC1` [Example 248, N—((S)-(7-((R)-(2-(Cicyclo[1.1.1]pentan-1-yl)acetamido)(cyclopropyl)methyl)imidazo[1,2-b]pyridazin-2-yl)(4,4-difluorocyclohexyl)methyl)-1-isopropyl-1H-pyrazole-5-carboxamide] were 49 nM and 37 nM.
Regarding `Cc1nonc1C(=O)N[C@H](c1cn2ncc([C@H](NC(=O)CC34CC(C3)C4)C3CC3)cc2n1)C1CCC(F)(F)CC1` [Example 249, N—((S)-(7-((R)-(2-(Bicyclo[1.1.1]pentan-1-yl)acetamido)(cyclopropyl)methyl)imidazo[1,2-b]pyridazin-2-yl)(4,4-difluorocyclohexyl)methyl)-4-methyl-1,2,5-oxadiazole-3-carboxamide], the IC50 stood at 24 nM in assay [1] and 98 nM in assay [2].
Taken in the same sequence, the figures for `Cc1nonc1C(=O)N[C@H](c1cn2ncc([C@H](NC(=O)CCC(F)F)C3CC3)cc2n1)C1CCC(F)(F)CC1` [Example 250, N—((S)-(7-((R)-Cyclopropyl(4,4-difluorobutanamido)methyl)imidazo[1,2-b]pyridazin-2-yl)(4,4-difluorocyclohexyl)methyl)-4-methyl-1,2,5-oxadiazole-3-carboxamide] were 98 nM and 390 nM.

These data come from patent publication US11702422B2, “Imidazopyridazines as modulators of IL-17” (Janssen Pharmaceutica NV, priority 2020, dated 2023).
